Key:
[1] = test system: patients with interstitial lung disease and pulmonary hypertension; settings: human, in vivo, 16 weeks
Text: Safety assessments consisted of the development of AEs, vital signs, clinical laboratory parameters, ECG parameters, hospitalizations due to cardiopulmonary indications, exacerbations of underlying lung disease, and oxygenation.
Safety end points included adverse events, abnormal laboratory results, oxygenation as measured by pulse oximetry (Spo2) and supplemental oxygen requirement, changes in pulmonary function test results, hospitalization for a cardiopulmonary indication, and investigator-reported exacerbations of underlying lung disease, defined as acute, clinically significant respiratory deterioration characterized by evidence of new widespread alveolar abnormality.

[2] = test system: patients with interstitial lung disease and pulmonary hypertension; test: Exacerbations of underlying lung disease, 16-week placebo-controlled trial of inhaled treprostinil (INCREASE); type: in vivo, human
Experimental: Subjects having underlying lung disease were treated with inhaled treprostinil over 16 weeks. Subjects initiated inhaled treprostinil or placebo at a dose of 3 breaths (18 mcg) 4 times daily (during waking hours). Study drug doses were maximized throughout the study. Dose escalations (additional 1 breath 4 times daily) could occur up to every 3 days with a target dosing regimen of 9 breaths (54 mcg) 4 times daily and a maximum dose of 12 breaths (72 mcg) 4 times daily, as clinically tolerated. Subjects were assessed during Screening and Baseline to determine eligibility for the study. Once eligible, 5 Treatment Phase visits to the clinic were required at Week 4, Week 8, Week 12, Week 15, and Week 16 (final study visit). An Early Termination (ET) Visit was conducted for subjects who discontinued prior to Week 16; all assessments planned for the final Week 16 Visit were conducted during the ET Visit, if applicable. Subjects were contacted at least weekly by telephone or email to assess tolerance to study drug, adverse events (AEs), and changes to concomitant medications.

[3] = test system: patients with interstitial lung disease and pulmonary hypertension; test: 6-minute walk test, INCREASE; type: in vivo, human
Experimental: We enrolled patients with interstitial lung disease and pulmonary hypertension (documented by right heart catheterization) in a multicenter, randomized, double-blind, placebo-controlled, 16-week trial. Patients were assigned in a 1:1 ratio to receive inhaled treprostinil, administered by means of an ultrasonic, pulsed-delivery nebulizer in up to 12 breaths (total, 72 μg) four times daily, or placebo. The primary efficacy end point was the difference between the two treatment groups in the change in peak 6-minute walk distance from baseline to week 16. Secondary end points included the change in N-terminal pro-B-type natriuretic peptide (NT-proBNP) level at week 16 and the time to clinical worsening.
(§1) The 6-minute walk test was performed and laboratory data were obtained at baseline and at weeks 4, 8, 12, and 16, or at the time of early discontinuation of treprostinil or placebo. Each 6-minute walk test was performed 10 to 60 minutes after the most recent dose of active drug or placebo, which is the time of peak plasma treprostinil exposure. A trough test was performed at week 15 at least 4 hours after the participant received a dose of treprostinil or placebo and at least 24 hours before the week 16 test. Pulse oximetry was performed immediately before, during, and after each 6-minute walk test. Measurement of N-terminal pro-B-type natriuretic peptide (NT-proBNP) levels and pulmonary function tests were performed at baseline and at weeks 8 and 16 (or at early discontinuation) after the patients recovered from the 6-minute walk test. The St. George's Respiratory Questionnaire (SGRQ), a quality-of-life measure, was completed at baseline and week 16 or at the time of early discontinuation.
(§2) The primary end point of the trial was the difference between the two groups in the change in peak 6-minute walk distance from baseline to week 16. Secondary efficacy end points were analyzed in the following hierarchical testing order: the change in NT-proBNP level from baseline to week 16, the time to clinical worsening, the change in 6-minute walk distance at peak plasma treprostinil level at week 12, and the change in 6-minute walk distance at trough treprostinil level at week 15. The time to clinical worsening was evaluated from the time of randomization until the patient's withdrawal from the trial and was defined as the time until the occurrence of any one of the following events: hospitalization for a cardiopulmonary indication, a decrease in 6-minute walk distance greater than 15% from baseline that was directly related to the disease under study at two consecutive visits and at least 24 hours apart, death from any cause, or lung transplantation.
For the primary efficacy analysis, the change in 6-minute walk distance was analyzed by mixed-model repeated-measures methods, under the assumption that missing data were missing at random. The model included the change from baseline to peak 6-minute walk distance as the dependent variable, with treatment, week, and treatment-by-week interaction as fixed effects, and the baseline 6-minute walk distance as a covariate. A sensitivity analysis for the primary end point was performed by means of a multiple imputation approach with a multivariate normal imputation model according to the Markov chain Monte Carlo method. The imputation model included treatment group, all scheduled visits, the patient's sex, and the patient's age at randomization. If the result for the primary efficacy end point was significant, secondary efficacy end points were to be evaluated according to a hierarchical testing procedure. Confidence intervals have not been adjusted for multiplicity and can-not be used to infer definitive treatment effects for secondary efficacy end points.

[4] = test system: patients with interstitial lung disease and pulmonary hypertension; test: Occurrence of / time to clinical worsening, INCREASE; type: in vivo, human
Experimental: as §2

[5] = test system: patients with interstitial lung disease and pulmonary hypertension; test: St. George's Respiratory Questionnaire, INCREASE; type: in vivo, human
Experimental: as §1
The St. George's Respiratory Questionnaire has a range of results from 0 to 100, with higher scores indicating greater impairment and with a minimum clinically important difference of 4 points.
The changes from baseline in Total Score and each of the 3 domain scores were analyzed by parametric ANCOVA with no imputation for missing data.

[6] = test system: patients with interstitial lung disease and pulmonary hypertension; test: Supplemental oxygen use, INCREASE; type: in vivo, human
[7] = test system: patients with interstitial lung disease and pulmonary hypertension; test: Distance saturation product, INCREASE; type: in vivo, human
Experimental: Change in distance saturation product is the product of distance walked and lowest SpO2 recorded during the 6-minute walk test.^7 Change from baseline to Week 16 in distance saturation product was analyzed by parametric ANCOVA with no imputation for missing distance saturation product values.

[8] = vs placebo, listed as Inhaled Treprostinil
[9] = vs placebo, listed as inhaled treprostinil

SMILES: CCCCC[C@H](O)CC[C@@H]1[C@H]2Cc3cccc(OCC(=O)O)c3C[C@H]2C[C@H]1O [Inhaled treprostinil, treprostinil]
- Serious adverse event: Rhinovirus infection [1]: 1 n
- patients with exacerbations of underlying lung disease ([2]; over the 16-week treatment period): 26.4%
- hazard ratio, exacerbation of underlying lung disease ([2]; vs placebo, 16 weeks): 0.66
- reduction in risk of an exacerbation of underlying lung disease ([2]; vs placebo, 16 weeks): 34%
- Change in peak 6-minute walk distance from baseline to wk 16 ([3]; LS mean ± SE, MMRM): 21.08 ± 5.12 m
- Least-squares mean change in peak 6-minute walk distance from baseline to wk 12 ([3]; mean ± SE): 18.77 ± 4.99 m
- Least-squares mean change in trough 6-minute walk distance from baseline to wk 15 ([3]; mean ± SE): 9.3 ± 5.5 m
- Treatment effect, least-squares mean difference in change in peak 6-minute walk distance, baseline to wk 16 ([3]; vs placebo, MMRM, listed as Inhaled Treprostinil): 31.12 ± 7.25 m
- Treatment effect, least-squares mean difference in change in peak 6-minute walk distance, baseline to wk 16 ([3]; vs placebo, MMRM, listed as inhaled treprostinil): 31.12 m
- Treatment effect, least-squares mean difference in change in peak 6-minute walk distance, baseline to wk 16 ([3]; vs placebo, MMRM, listed as treprostinil): 31.12 m
- Treatment effect, least-squares mean difference in peak 6-minute walk distance, baseline to wk 12 [3, 8]: 31.29 ± 7.07 m
- Treatment effect, least-squares mean difference in trough 6-minute walk distance, baseline to wk 15 [3, 8]: 21.99 ± 7.7 m
- Treatment effect, least-squares mean difference in peak 6-minute walk distance, baseline to wk 12 [3, 9]: 31.29 m
- Treatment effect, least-squares mean difference in trough 6-minute walk distance, baseline to wk 15 [3, 9]: 21.99 m
- between-group difference in change from baseline in peak 6-minute walk distance at week 16 ([3]; vs placebo, multiple imputation, Markov chain Monte Carlo): 30.97 m
- patients with clinical worsening ([4]; 16 weeks): 22.7%
- patients with first occurrence of clinical worsening that involved hospitalization for a cardiopulmonary indication ([4]; 16 weeks): 11.0%
- Clinical worsening: Death from any cause ([4]; 16 weeks, N = 163): 4 (2.5) no. (%)
- Clinical worsening: Decrease in 6 minute walk distance of >15% from baseline ([4]; 16 weeks, N = 163): 13 (8.0) no. (%)
- Clinical worsening: Hospitalization for cardiopulmonary indication ([4]; 16 weeks, N = 163): 18 (11.0) no. (%)
- Clinical worsening: Lung transplantation ([4]; 16 weeks, N = 163): 2 (1.2) no. (%)
- Occurrence of clinical worsening: Any event ([4]; 16 weeks, N = 163): 37 (22.7) no. (%)
- Occurrence of clinical worsening, hazard ratio ([4]; vs placebo, Cox proportional-hazards model, listed as inhaled treprostinil): 0.61
- St. George's Respiratory Questionnaire, Change from Baseline, Median ([5]; Week 16): −0.70
- St. George's Respiratory Questionnaire, Value, Median ([5]; Week 16): 56.30
- St. George's Respiratory Questionnaire, Change from Baseline, LS Mean (SE) ([5]; Week 16, ANCOVA): −1.30 (0.87)
- St. George's Respiratory Questionnaire, Change from Baseline, Mean (SD) ([5]; Week 16, n 143): −1.25 (10.99)
- St. George's Respiratory Questionnaire, Value, Mean (SD) ([5]; Week 16, n 143): 55.91 (17.07)
- St. George's Respiratory Questionnaire, LS Mean Difference ([5]; week 16, vs placebo): −1.18, (1.25) (−3.63, 1.28)
- between-group difference in patient-reported quality of life assessed with the SGRQ ([5]; week 16, vs placebo): no significant between-group difference
- Supplemental oxygen use During Walk (L/min), Change from Baseline, Median ([6]; Baseline During Walk): 0.0 L/min
- Supplemental oxygen use During Walk (L/min), Value, Median ([6]; Baseline During Walk): 4.0 L/min
- Supplemental oxygen use During Walk (L/min), Change from Baseline, Mean (SD) ([6]; Baseline During Walk, n 129): 0.1 (0.8) L/min
- Supplemental oxygen use During Walk (L/min), Value, Mean (SD) ([6]; Baseline During Walk, n 129): 4.9 (4.0) L/min
- Supplemental oxygen use Pre-walk (L/min), Change from Baseline, Median ([6]; Week 16): 0.0 L/min
- Supplemental oxygen use Pre-walk (L/min), Value, Median ([6]; Week 16): 3.0 L/min
- Supplemental oxygen use Pre-walk (L/min), Change from Baseline, Mean (SD) ([6]; Week 16, n 131): 0.4 (1.4) L/min
- Supplemental oxygen use Pre-walk (L/min), Value, Mean (SD) ([6]; Week 16, n 131): 3.0 (2.5) L/min
- treatment-related changes in supplemental oxygen use ([6]; over the trial period): no significant treatment-related changes
- Distance saturation product, Week 16 Change from Baseline, LS Mean (SE) ([7]; ANCOVA): 7.2 (4.5) m %
- Distance saturation product, Week 16 Change from Baseline, Mean (SD) ([7]; n 118): 7.607 (45.680) m %
- Distance saturation product, Week 16 Change from Baseline, Median ([7]; n 118): 8.385 m %
- Distance saturation product, LS Mean Difference (SE) ([7]; week 16, vs placebo): 11.51 (6.5), 95% CI (−1.33, 24.35) m %
- between-group difference in the distance-saturation product ([7]; week 16, vs placebo): no significant between-group difference

Reference: patent publication US12697315B2, “Treatment for interstitial lung disease” (United Therapeutics Corporation, priority 2020, dated 2026)
